Laboratory results from patent publication US20180015101A1, “COMPOSITIONS AND METHODS FOR ANTIGEN-SPECIFIC TOLERANCE” (INSERM (INSTITUT NATIONAL DE LA SANTÉ ET DE LA RECHERCHE …, priority 2014, published 2018).

How the values were obtained:
[1] = test system: Rip-OVA^high mice; experiment: Diabetes induction in Rip-OVAhigh mice by transfer of autoreactive CTLs after immunization; format: in vivo; details: intradermal injection one day before CTL transfer
Procedure: Intradermal immunization of mice and diabetes induction: Eight to ten week-old Rip-OVAhigh mice received two intradermal injections in the back with 70 μg of CoPP (Livchem) prepared as described and 20 μg of endofree ovalbumin (Hyglos) in 10 μl. One hundred and forty micrograms of MnPP (Livchem) prepared as described (18) was added to the preparation for HO-1-inhibition experiments. Forty micrograms of Alexa Fluor® 488 ovalbumin (Molecular Probes) has been used for phagocytosis assay. For diabetes induction, mice were injected i.v. the following day with 0.5×10^5 autoreactive cytotoxic OT-I CD8^+ T cells (purity >95%) previously co-cultured or not with MHC-II^+ or F4/80^+ cells during 4 hours. […]
Histological analysis: For evaluation of insulitis, pancreata were snap-frozen and cryosections (8 μm thick) were acetone-fixed. Sections were stained with H&E (Thermo Electron Corp.), and the degree of insulitis was evaluated microscopically.
Light-sheet-based fluorescent microscopy analysis: Animals were perfused with PFA 4% and washed with PBS. […] For GFP fluorescence imaging, we used a 525/50 band pass filter on the turret. […] The images stacks are analyzed using ImageJ software (Rasband, W. S., ImageJ, U. S. National Institutes of Health, Bethesda, Md., USA, http://imagej.nih.gov/ij/, 1997-2012).

[2] = test system: HO-1; experiment: HO-1 expression in MHC-II+ cells of draining lymph nodes after intradermal injection (FACS); format: in vivo, mice
Procedure: (§1) Isolation of murine APCs and co-culture with autoreactive CTLs: For MHC-II^+ and F4/80^+ cells isolation, skin-draining LNs were removed 24 hours after intradermal injection in the back or in the ear. Single-cell suspensions were prepared by enzymatic lymph node disaggregation with collagenase D (Sigma-Aldricht). Cells were stained with anti-MHC-II-FITC (clone AF6-120.1, BD pharmingen) or anti-F4/80-PE (clone BM8, eBioscience) monoclonal antibodies as primary labeling reagent and respectively with anti-FITC or anti-PE microbeads (Miltenyi) as secondary reagent. After magnetic separation, we checked that purity was >82% for CD11b^+CD11c^lowLy6C^highF4/80^+ cells in CoPP-OVA immunized mice. These cells were co-cultured with autoreactive CTLs (respectively 1:1 and 1:5 APC to CTL ratio) overnight for velocity measurement and transwell migration assay.
Intradermal immunization of mice and diabetes induction: Eight to ten week-old Rip-OVAhigh mice received two intradermal injections in the back with 70 μg of CoPP (Livchem) prepared as described and 20 μg of endofree ovalbumin (Hyglos) in 10 μl. One hundred and forty micrograms of MnPP (Livchem) prepared as described (18) was added to the preparation for HO-1-inhibition experiments. Forty micrograms of Alexa Fluor® 488 ovalbumin (Molecular Probes) has been used for phagocytosis assay. For diabetes induction, mice were injected i.v. the following day with 0.5×10^5 autoreactive cytotoxic OT-I CD8^+ T cells (purity >95%) previously co-cultured or not with MHC-II^+ or F4/80^+ cells during 4 hours.
(§2) Flow Cytometry: Single-cells suspensions of spleen and lymph nodes were stained with anti-CD8 (clone 53-6.7), anti-CD45.1 (clone A20), anti-CD49b/α2 (clone DX5), anti-CD49d/α4 (clone RI-2), anti-ITGAE/αE (clone M290), anti-CD29/β1-integrin (clone Ha2/5), anti-CD18/β2-integrin (clone C71/16), anti-CD61/β3-integrin (clone 2C9.G2), anti-CD62E (clone 10E9.6), anti-CD62L (clone Mel14), anti-PSGL1 (clone 2PH1), anti-ICAM-1 (clone 3E2), anti-VCAM-1 (clone 429), anti-CD183/CXCR3 (clone CXCR3-173), anti-CD195/CCR5 (clone C34-3448), anti-GITR (clone DTA-1), anti-PD-1 (clone J43), anti-CD28 (clone 37.51), anti-CD38 (clone 90), anti-CD69 (clone H1.2F3), anti-CD44 (clone IM7), anti-CD107b (clone ABL-93) antibodies. All antibodies are from BD Biosciences. Intracellular staining of HO-1 using BD cytofix/cytoperm kit following manufacturers' recommendations were performed with anti-HO-1 antibody (clone HO-1-2, abcam) as primary labeling reagent and with anti-anti-IgG1 (clone MOPC-21) monoclonal antibody conjugated to a fluorochrome as secondary labeling reagent.

[3] = test system: C57BL/6 mice; experiment: Experimental Autoimmune Encephalomyelitis (EAE), prophylactic and curative intradermal treatment; format: in vivo; details: for protection against EAE (clinical score): i.d., low dose CoPP 0.2 mg/mouse, preventive or curative settings
Procedure: Experimental Autoimmune Encephalomyelitis (EAE) induction: Briefly, C57BL/6 were immunized by a subcutaneous injection of emulsified complete freund adjuvant (CFA, sigma aldrich) complemented with mycobacterium tuberculosis (400 μg, BD) and MOG35-55 peptide (200 μg, genecust). Pertussis toxin is injected (200 ng i.v, VWR) at the time of immunization and two days later. Clinical signs of EAE were evaluated daily and scored as follows: 0, normal; 1, limp tail; 2, partial paralysis of the hind limbs; 3, complete paralysis of the hind limbs; 4, hind-limb paralysis and forelimb weakness; 5, moribund or deceased
[…] Same injections were repeated twice at three days interval. For curative treatment, mice were treated with one injection in each ear at the EAE onset (i.e., mean clinical score, 0.72±0.1) with the same quantity than in prophylactic treatment. Same injections were repeated twice at three days interval after EAE onset.

[4] = test system: NOD mice; details: administered systemically before disease onset; cited from earlier work
[5] = test system: Human monocytic THP-1 cells; experiment: HO-1 expression in THP-1 cells after HO-1 inducer treatment; format: cell-based; details: 16 hours in vitro
Procedure: Human THP-1 monocytic cell line and co-culture with CD8^+ T cells clones: THP-I cells were cultured in RPMI 1640 (Gibco) supplemented with 10% fetal bovine serum (Eurobio), 1% glutamine (Gibco), 50 IU/mL penicillin 50 IU/mL streptomycin (Gibco) and 200 nM PMA (Sigma-Aldrich) under standard conditions as previously described (36).
as §2

[6] = test system: Human PBMC; experiment: HO-1 expression in human PBMC after in vitro hemin treatment; format: cell-based; details: 4 hours in vitro
Procedure: Human and non-human primate PBMC: Human PBMCs were obtained at the Etablissement Français du Sang in Nantes from blood of healthy donors. After Ficoll-Paque density gradient centrifugation (GE Healthcare), PBMC were cultured in RPMI 1640 (Gibco) supplemented with 10% fetal bovine serum (Eurobio), 1% glutamine (Gibco), 50 IU/mL penicillin 50 IU/mL streptomycin (Gibco) in presence or not of CoPP or hemin during 4 hours.
as §2, with “Intracellular staining of HO-1 using BD cytofix/cytoperm kit following manufacturers' recommendations were performed with anti-HO-1 antibody (clone HO-1-2, abcam) as primary labeling reagent and with anti-anti-IgG1 (clone MOPC-21) monoclonal antibody conjugated to a fluorochrome as secondary labeling reagent.” left out

[7] = test system: HO-1; experiment: HO-1 induction in lymph nodes of baboons after intradermal Normosang; format: in vivo, Baboons (Papio anubis); details: 24 h after intradermal 6.25, 12.5 or 25 mg
Procedure: Non-Human primates: Baboons (Papio anubis, from the CNRS Primatology Center, Rousset, France) were negative for all quarantine tests. Animals were housed at the large animal facility of our laboratory following the recommendations of the Institutional Ethical Guidelines of the Institut National de la Santé Et de la Recherche Médicale, France. All experiments were performed under general anaesthesia with Zoletil (Virbac, Carron, France). Three Baboons were injected intradermally in the inguinal fold with respectively 6.25 mg (500 μL), 12.5 mg (500 μL) or 25 mg (1 mL) of clinical hemin (Normosang®). A non-treated baboon has served as control. Inguinal lymph nodes were surgically removed 24 hours after intradermal injection. Single-cell suspensions for flow cytometry analysis were prepared by enzymatic lymph node disaggregation with Collagenase D (Sigma-Aldricht).
Intradermal immunization with Normosang®: Three Baboons were injected intradermally in the inguinal fold with respectively 6.25 mg (500 μL), 12.5 mg (500 μL) or 25 mg (1 mL) of clinical hemin (Normosang®). A non-treated baboon has served as control.
Inguinal lymph nodes were surgically removed 24 hours after intradermal injection. Single-cell suspensions for flow cytometry analysis were prepared by enzymatic lymph node disaggregation with Collagenase D (Sigma-Aldricht). […]

[8] = test system: HO-1^+ MoDCs; experiment: MoDC recruitment in draining LN after intradermal injection; format: in vivo; details: given as dermal migration inhibitor in CoPP-injected mice
Procedure: as §1, with “assay. […]” for “assay.”

[9] = after CoPP intradermal injection

| Compound | diabetes development [1] | protection against EAE (clinical score) [3] | effect on T1D [4] | HO-1 expression in THP-1 cells [5] | also measured |
| --- | --- | --- | --- | --- | --- |
| ovalbumin | protection was not observed | – | – | – | – |
| C=CC1=C(C)c2cc3[n-]c(cc4nc(cc5[n-]c(cc1n2)c(C)c5CCC(=O)[O-])C(CCC(=O)[O-])=C4C)c(C)c3C=C.[Co+2].[H+].[H+] [CoPP, Cobalt protoporphyrin] | protection was not observed | not sufficient to tolerize against EAE | inhibit T1D in NOD mice | dose-dependently expressed HO-1 | duration of HO-1 induction [2, 9]: at least 72 hours; earliest time HO-1 induction observed [2, 9]: ≤ 24 h; localisation of HO-1 induction ([2]; intradermal injection): restricted to the draining LNs; increase of HO-1 expression in MHC-II+ cells in draining lymph nodes ([2]; intradermal injection, RIP-OVAhigh mice): 5.8 fold; MOG-specific CD4+ T-cell proliferation capacity ([3]; vs untreated mice): same proliferation capacity |
| protoporphyrin IX containing a ferric iron ion (Heme B) with a chloride ligand [hemin] | – | – | – | dose-dependently expressed HO-1 | HO-1 expression in human MHC-II+CD11clowCD14+ cells [6]: induced highest HO-1 expression; frequency of HO-1+ cells in draining LN [7]: dose-dependently increased |
| MOG35-55: myelin oligodendrocyte glycoprotein (MOG) 35-55 peptide, cognate antigen in EAE (MEVGWYRSPFSRVVHLYRNGK; UniProt Q61885 63-83, looked up, fragment) | – | protection was not observed | – | – | – |
| [C-]#[O+] [CO, carbon monoxide] | – | – | inhibit T1D in NOD mice | – | – |
| O=C(O)CCCCCCC1C(=O)NC(=O)N1CCC(O)C1CCCCC1 (stereo not shown) [BW245c] | – | – | – | – | effect on MoDC recruitment [8]: did not affect |
